Experimental data as given in patent US10568939B2, “Composition and method for improving sleep duration and quality” (Board of Supervisors of Louisiana State University and …, priority 2016, dated 2020).

What was measured:
[1] = Effect of individual components alone versus the novel combination on sleep; assay type: in vivo, human; settings: component alone or novel combination
Janus kinase 3 (Jak3) = assay: Inhibition of Janus kinase 3 (Jak3) expression in LPS-stimulated HT-29 cells; assay type: cell-based; settings: HT-29 cells stimulated by LPS; EGCG 20, 35, 50 μM; CE from 3, 6, 10 g light roasted chicory; combinations E1C1, E2C2, E3C3; triplicates; FIG. 2
Procedure: (§1) A series of in vitro tests were conducted, using levels of components that would be expected to approximate the concentrations that would be seen in vivo following oral consumption of 2 fluid ounces of the novel composition by a 70 kilogram individual.
(§2) • a. Inhibition of Janus kinase 3 (Jak3) by EGCG, CE, or a mixture of EGCG and CE. Jak3 is expressed solely in immune cells. Jak3 expression is an upstream event for the activation of TNF-α and subsequent cytokines such as IL-6. HT-29 colon cancer cells in T-75 flasks were stimulated by LPS (control). HT-29 cells in T-75 flasks were also stimulated by LPS and treated with EGCG (Treatment 1=20 μM (E1), Treatment 2=35 μM (E2), or Treatment 3=50 μM (E3)), CE (extract from 3 g (C1), 6 g (C2), or 10 g (C3) of light roasted chicory), or combinations of the respective low, medium, and high concentrations of EGCG and CE (E1C1, E2C2, or E3C3). C1, C2, or C3 concentrations approximated the levels that would be expected following consumption of 2 fluid ounces of the novel composition by a 70 kilogram individual. […] The effects of the treatments on histamine activity were determined by the inhibition of COX-2 expression. […] The effective concentrations of TNF-α, IL-1β or IL-6 in supernatants were calculated using a standard curve developed using known standards of TNF-α, IL-1β or IL-6. […]

COX-2 expression = assay: Anti-histamine activity: inhibition of COX-2 expression in histamine-treated HeLa cells; assay type: cell-based; settings: 1 μmol/L histamine, 18 h, EGCG 20, 35, 50 μM, positive controls mepyramine maleate and JNJ-7777120, FIG. 3
Procedure: as §1, §2

TNF-α = molecular target: T1, TNF-α (Homo sapiens, UniProt P01375); assay: TNF-α level by ELISA, supernatants of LPS-treated HT-29 cell cultures; assay type: cell-based; settings: HT-29 supernatants, EGCG 20, 35, 50 μM, FIG. 4
T1 construct: TNF-alpha levels in HT-29 cell culture treated with LPS; endogenous in cells; host or cells: HT-29 (culture supernatant)
T1 sequence (P01375 77-233 limits assumed): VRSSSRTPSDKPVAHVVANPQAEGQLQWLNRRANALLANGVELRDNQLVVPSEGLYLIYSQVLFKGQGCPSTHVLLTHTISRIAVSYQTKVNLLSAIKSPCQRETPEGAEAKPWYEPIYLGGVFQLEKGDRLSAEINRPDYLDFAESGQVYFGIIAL
Procedure: as §1, §2

IL-1β = molecular target: T2, IL-1β (Homo sapiens, UniProt P01584); assay: IL-1β level by ELISA, supernatants of LPS-treated HT-29 cell cultures; assay type: cell-based; settings: HT-29 supernatants, EGCG 20, 35, 50 μM, FIG. 5
T2 construct: IL-1β levels in HT-29 cell culture treated with LPS; endogenous in cells; host or cells: HT-29 (culture supernatant)
T2 sequence (P01584 117-269): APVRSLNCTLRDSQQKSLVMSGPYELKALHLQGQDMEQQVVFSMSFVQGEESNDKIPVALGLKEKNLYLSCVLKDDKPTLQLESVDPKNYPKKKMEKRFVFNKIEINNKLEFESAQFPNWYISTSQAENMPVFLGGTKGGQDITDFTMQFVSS
Procedure: as §1, §2

IL-6 = molecular target: T3, IL-6 (Homo sapiens, UniProt P05231); assay: IL-6 level by ELISA, supernatants of LPS-treated HT-29 cell cultures; assay type: cell-based; settings: HT-29 supernatants, EGCG 20, 35, 50 μM, FIG. 6
T3 construct: IL-6 levels in HT-29 cell culture treated with LPS; endogenous in cells; host or cells: HT-29 (culture supernatant)
T3 sequence (P05231 30-212): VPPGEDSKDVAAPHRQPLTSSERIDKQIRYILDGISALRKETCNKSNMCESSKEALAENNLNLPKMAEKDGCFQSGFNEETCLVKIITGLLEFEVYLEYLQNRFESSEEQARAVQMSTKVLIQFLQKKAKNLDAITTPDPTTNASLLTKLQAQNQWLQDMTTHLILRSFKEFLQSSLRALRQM
Procedure: as §1, §2

Structure (SMILES)	Sleep after awakening in the middle of the night [1]	Sleep onset, depth, efficiency, duration [1]	Jak3 expression (Janus kinase 3 (Jak3))	COX-2 expression (anti-histamine activity) (COX-2 expression)	TNF-α activity/level (TNF-α)	IL-1β activity/level (IL-1β)	IL-6 activity/level (IL-6)
CCNC(=O)CC[C@H](N)C(=O)O [Theanine]	does not improve sleep after awakening in the middle of the night	does not enhance sleep onset, depth, efficiency, or duration					
O=C(O[C@@H]1Cc2c(O)cc(O)cc2O[C@@H]1c1cc(O)c(O)c(O)c1)c1cc(O)c(O)c(O)c1 [EGCG, Epigallocatechin gallate]	does not improve sleep after awakening in the middle of the night	does not enhance sleep onset, depth, efficiency, or duration	inhibited Jak3 expression in a dose-dependent manner	inhibited COX-2 expression in a dose-dependent manner, although not as strongly as did the positive controls	inhibited the activity of each of TNF-α, IL-1β and IL-6 in a dose-dependent manner	inhibited the activity of each of TNF-α, IL-1β and IL-6 in a dose-dependent manner	inhibited the activity of each of TNF-α, IL-1β and IL-6 in a dose-dependent manner
